Values of other authors as cited in patent publication US20150209310A1, “NACA FOR THE TREATMENT OF CHRONIC OR LOW IMPACT BRAIN TRAUMA” (Brighton Biotech, Inc., priority 2014, published 2015).

Settings: background statement

In the case of CC(=O)N[C@@H](CS)C(=O)O [NAC, N-acetyl-L-cysteine], the “crossing of the blood-brain barrier” value is listed as “inability to cross the blood-brain barrier”.
